For this assay, the target named is T1, Tyrosinase.
T1 construct: gene PPO3
Briefly: tyrosinase inhibition assay, details only by reference. The format is biochemical. The settings on record: substrate and pH not given. An excerpt: tyrosinase inhibition assay, details only by reference on Tyrosinase

Molecules are shown by their SMILES.

In turn, `O=c1c(O)c(-c2ccc(O)c(O)c2)oc2cc(O)cc(O)c12` [Quercetin] gave a Quercetin of 39.62 ± 0.05 µg/mL.

Source of the values: PMC9653751, “Chemical Composition and Antioxidant, Antimicrobial, and Anti-Inflammatory Properties of Origanum compactum Benth Essential Oils from Two Regions: In Vitro and In Vivo Evidence and In Silico Molecular Investigations” (Molecules, 2022).
